Experiments:
[1] = target: T1, ENaC (Epithelial Sodium Channel), Mouse kidney M-1 cells (Mus musculus, UniProt Q61180+Q9WU38+Q9WU39); assay: Ussing Chamber assay: inhibition of amiloride sensitive short circuit current in M-1 cells; format: cell-based; conditions: apical application, 37° C.
T1 construct: Mouse kidney M-1 cells were cultivated in DMEM containing 5% FCS and 5 μM dexamethasone; endogenous in cells; host or cells: Mouse kidney M-1 cells (polarised on transwell filters, dexamethasone-treated)
T1 sequence (Q61180 1-699): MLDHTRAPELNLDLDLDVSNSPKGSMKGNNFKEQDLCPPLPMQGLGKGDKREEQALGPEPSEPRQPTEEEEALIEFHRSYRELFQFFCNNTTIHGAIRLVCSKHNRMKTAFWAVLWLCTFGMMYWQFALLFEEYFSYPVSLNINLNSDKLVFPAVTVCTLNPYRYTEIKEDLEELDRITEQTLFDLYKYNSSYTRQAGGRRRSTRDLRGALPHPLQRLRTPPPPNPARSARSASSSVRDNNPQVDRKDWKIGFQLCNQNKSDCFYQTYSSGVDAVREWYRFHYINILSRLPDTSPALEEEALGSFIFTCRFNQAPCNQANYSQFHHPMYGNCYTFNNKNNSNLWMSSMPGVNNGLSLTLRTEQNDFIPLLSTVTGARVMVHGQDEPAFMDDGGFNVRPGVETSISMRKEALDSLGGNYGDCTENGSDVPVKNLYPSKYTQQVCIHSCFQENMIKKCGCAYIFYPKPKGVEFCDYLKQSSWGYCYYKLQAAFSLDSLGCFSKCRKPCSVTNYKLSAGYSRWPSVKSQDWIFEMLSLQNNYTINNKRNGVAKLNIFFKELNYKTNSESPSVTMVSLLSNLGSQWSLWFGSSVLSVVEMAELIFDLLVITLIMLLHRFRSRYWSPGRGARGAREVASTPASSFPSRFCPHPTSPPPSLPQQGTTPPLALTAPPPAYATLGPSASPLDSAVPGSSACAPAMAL
T1 sequence (Q9WU38 1-638): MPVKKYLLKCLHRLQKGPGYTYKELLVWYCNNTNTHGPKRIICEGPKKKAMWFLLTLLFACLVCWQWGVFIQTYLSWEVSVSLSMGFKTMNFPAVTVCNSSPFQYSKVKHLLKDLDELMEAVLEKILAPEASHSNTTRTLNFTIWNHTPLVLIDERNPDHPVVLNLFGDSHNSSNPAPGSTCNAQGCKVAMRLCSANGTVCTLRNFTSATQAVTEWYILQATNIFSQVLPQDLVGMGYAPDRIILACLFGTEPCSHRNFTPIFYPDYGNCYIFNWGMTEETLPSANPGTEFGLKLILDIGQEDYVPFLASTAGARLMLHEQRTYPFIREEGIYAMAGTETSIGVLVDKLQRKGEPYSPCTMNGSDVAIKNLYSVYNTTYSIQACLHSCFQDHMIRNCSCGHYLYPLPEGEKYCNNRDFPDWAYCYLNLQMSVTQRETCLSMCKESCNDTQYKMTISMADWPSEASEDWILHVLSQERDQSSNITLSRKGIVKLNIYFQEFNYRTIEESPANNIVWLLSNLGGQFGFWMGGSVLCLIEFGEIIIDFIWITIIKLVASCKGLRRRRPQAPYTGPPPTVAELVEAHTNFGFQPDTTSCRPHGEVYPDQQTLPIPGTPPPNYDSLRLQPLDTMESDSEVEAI
T1 sequence (Q9WU39 1-655): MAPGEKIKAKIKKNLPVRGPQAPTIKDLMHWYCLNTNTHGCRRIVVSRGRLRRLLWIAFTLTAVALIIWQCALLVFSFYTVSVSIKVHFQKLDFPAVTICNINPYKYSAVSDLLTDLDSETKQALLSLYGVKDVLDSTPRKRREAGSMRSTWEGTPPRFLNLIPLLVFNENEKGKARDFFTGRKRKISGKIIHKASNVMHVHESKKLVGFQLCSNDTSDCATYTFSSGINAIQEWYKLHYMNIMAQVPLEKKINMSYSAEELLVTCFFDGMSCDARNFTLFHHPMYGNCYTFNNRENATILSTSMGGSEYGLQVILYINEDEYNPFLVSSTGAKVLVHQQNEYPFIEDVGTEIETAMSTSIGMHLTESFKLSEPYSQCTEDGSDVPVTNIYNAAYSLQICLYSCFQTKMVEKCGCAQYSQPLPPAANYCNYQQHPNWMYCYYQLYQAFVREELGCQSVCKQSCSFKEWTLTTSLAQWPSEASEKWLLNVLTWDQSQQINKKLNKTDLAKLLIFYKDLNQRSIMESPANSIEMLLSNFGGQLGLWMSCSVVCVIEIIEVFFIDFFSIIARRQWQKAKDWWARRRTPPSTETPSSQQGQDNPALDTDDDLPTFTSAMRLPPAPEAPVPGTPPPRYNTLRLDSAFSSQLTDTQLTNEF
Description: Ussing Chamber: Mouse kidney M-1 cells were cultivated in DMEM containing 5% FCS and 5 μM dexamethasone for 10 to 12 days on polyester transwell filters. Filters were inserted into a teflon-coated well-plate which fit into the ussing chamber system. Prior to measurement the medium of M-1 cells was replaced with Caco-2 transport buffer (Invitrogen, Germany). During measurements, the Ussing chamber temperature was kept at 37° C. Short circuit currents (I_sc) were measured in the voltage-clamp mode with the software package Lab View for data acquisition and analysis. The transepithelial electrical resistance (TEER) was determined by the application of voltage steps of ±5 mV every 5 sec. Compounds were administered at a final concentration of 3 μM or at increasing concentrations (1-3-10 μM) to the apical solution. At the end of each experiment the amiloride sensitive I_SC was measured by adding 3 μM amiloride to the apical compartment. Results are expressed as inhibition in percent of the amiloride effect or as IC50.

[2] = Permeability in CALU-3 cells; format: in vitro ADME; conditions: human, CALU-3 monolayers, pH 7.4, 37° C., 10 μM compound; for Papp A→B at 90 min, 10 μM: apical-to-basal; for Papp B→A at 90 min, 10 μM: basal-to-apical
Description: Permeability in CALU-3 Cells:
Permeability measurements across polarized, confluent CALU-3 cell monolayers grown on permeable filter supports are used to provide information on the potential of a compound to pass the lung epithelium.
CALU-3 cells (1-2×10^5 cells/l cm^2 area) are seeded on filter inserts (Costar transwell polycarbonate filters, 0.4 μm pore size) and cultured (for 10-12 days DMEM) until tight monolayers are formed. Compounds of interest are dissolved in appropriate solvent (DMSO, 10 mM stock solution). […] The transport solution (TL) is applied to the apical or basolateral donor side for measuring A-B or B-A permeability (3 filter replicates), respectively. The receiver side contains the same buffer as the donor side. After 30 min of accommodation, samples are collected at the start t0=0 min and at the end of the experiment tn=90 min from the donor and at 0, 30, 60, and 90 min also from the receiver chamber. Volume removed is […] by HTP-4 buffer. The compound concentration in the samples is measured by HPLC-MS/MS or scintillation counting. The permeability coefficient (Papp) and efflux ratio are calculated according to: Papp [cm/s]=(concentration receiver [nM]*volume receiver [mL]/time interval [sec])*(1/filter area)*(1/donor concentration [nM]).

Compound	IC50 [1]	Papp A→B at 90 min, 10 μM [2]	Papp B→A at 90 min, 10 μM [2]
CCn1c(CNC(=O)c2nc(Cl)c(N)nc2N)[n+](CC(=O)c2ccc(OC)c(OC)c2)c2ccc(OC)cc21.O=C([O-])C(F)(F)F [Example 8.01]	13 nM	0.3 ×10⁻⁶ cm/s	0.2 ×10⁻⁶ cm/s
CC[n+]1c(CNC(=O)c2nc(Cl)c(N)nc2N)n(C2CCN(C(=O)NCCOC)CC2)c2ccccc21.O=C[O-] [Example 7.01]	1 nM	0.07 ×10⁻⁶ cm/s	0.2 ×10⁻⁶ cm/s
COc1ccc2c(c1)[n+](CCF)c(CNC(=O)c1nc(Br)c(N)nc1N)n2CCOCCOCCO [Example 2.01]	2 nM		
CCn1c(CNC(=O)c2nc(Cl)c(N)nc2N)[n+](CC(=O)N(C)CCN(C)C)c2ccc(OC)cc21 [Example 3.09]	33 nM		
CCn1c(CNC(=O)c2nc(Cl)c(N)nc2N)[n+](CC(=O)N(C)CCOC)c2ccc(OC)cc21.[Br-] [Example 3.13]	7 nM	0.07 ×10⁻⁶ cm/s	0.2 ×10⁻⁶ cm/s
CCn1c(CNC(=O)c2nc(Cl)c(N)nc2N)[n+](CC(=O)NC2CCN(C(=O)OC(C)(C)C)CC2)c2ccc(OC)cc21.[Br-] [Example 3.12]	12 nM	0.09 ×10⁻⁶ cm/s	0.3 ×10⁻⁶ cm/s
CCn1c(CNC(=O)c2nc(Cl)c(N)nc2N)[n+](CC(=O)N(CCOC)CCOC)c2ccc(OC)cc21 [Example 3.01]	10 nM		
CCn1c(CNC(=O)c2nc(Cl)c(N)nc2N)[n+](CC(=O)N2CCNCC2)c2ccc(OC)cc21.Cl.[Cl-] [Example 6.01]	47 nM	0.3 ×10⁻⁶ cm/s	0.2 ×10⁻⁶ cm/s
CCn1c(CNC(=O)c2nc(Cl)c(N)nc2N)[n+](CC(=O)N2CCCN(C(=O)OC(C)(C)C)CC2)c2ccc(OC)cc21 [Example 3.21]	28 nM		
CCn1c(CNC(=O)c2nc(Cl)c(N)nc2N)[n+](CC(=O)N2CCCNCC2)c2ccc(OC)cc21 [Example 6.04]	63 nM		
C=CC[n+]1c(CNC(=O)c2nc(Cl)c(N)nc2N)n(CCOCCOCCO)c2ccc(OC)cc21 [Example 1.05]	0.4 nM		
CCn1c(CNC(=O)c2nc(Cl)c(N)nc2N)[n+](CC(=O)N(CCO)CCO)c2ccc(OC)cc21 [Example 3.15]	20 nM		
CCn1c(CNC(=O)c2nc(Cl)c(N)nc2N)[n+](CC(=O)N(C)CCCN(C)C)c2ccc(OC)cc21 [Example 3.07]	39 nM		
CC[n+]1c(CNC(=O)c2nc(Cl)c(N)nc2N)n(CCOCCOCCN)c2cc(OC)ccc21 [Example 6.02]	4 nM		
CCn1c(CNC(=O)c2nc(Cl)c(N)nc2N)[n+](CC(=O)NC2CCNCC2)c2ccc(OC)cc21 [Example 6.03]	17 nM		
CC[n+]1c(CNC(=O)c2nc(Cl)c(N)nc2N)n(CCOCCOCCNC(=O)c2nc(Cl)c(N)nc2N)c2cc(OC)ccc21 [Example 5.01]	4 nM		
CCNC(=O)C[n+]1c(CNC(=O)c2nc(Cl)c(N)nc2N)n(CC)c2cc(OC)ccc21 [Example 3.03]	4 nM		
CCn1c(CNC(=O)c2nc(Cl)c(N)nc2N)[n+](CC(=O)NCCN(C)C)c2ccc(OC)cc21.O=C(O)C(F)(F)F.O=C([O-])C(F)(F)F [Example 3.06]	8 nM	0.1 ×10⁻⁶ cm/s	0.03 ×10⁻⁶ cm/s
CCn1c(CNC(=O)c2nc(Cl)c(N)nc2N)[n+](CC(N)=O)c2ccc(OC)cc21 [Example 3.10]	1 nM		
CCn1c(CNC(=O)c2nc(Cl)c(N)nc2N)[n+](CC(=O)N2CCN(C)CC2)c2ccc(OC)cc21 [Example 3.05]	12 nM		
COc1ccc2c(c1)n(CCF)c(CNC(=O)c1nc(Cl)c(N)nc1N)[n+]2CCOCCOCCO [Example 1.04]	2 nM		
CCn1c(CNC(=O)c2nc(Cl)c(N)nc2N)[n+](CCCC(=O)NCCN(C)C)c2ccc(OC)cc21 [Example 4.01]	1 nM		
CCn1c(CNC(=O)c2nc(Cl)c(N)nc2N)[n+](CC(=O)NC)c2ccc(OC)cc21 [Example 3.14]	2 nM		
CCn1c(CNC(=O)c2nc(Cl)c(N)nc2N)[n+](CC(=O)NCCOC)c2ccc(OC)cc21 [Example 3.04]	3 nM		
CCn1c(CNC(=O)c2nc(Cl)c(N)nc2N)[n+](CC(=O)NCCCN(C)C(=O)OC(C)(C)C)c2ccc(OC)cc21 [Example 3.17]	4 nM		
CC[n+]1c(CNC(=O)c2nc(Cl)c(N)nc2N)n(CC2(CO)COC2)c2cc(OC)ccc21 [Example 1.02]	2 nM		
CC[n+]1c(CNC(=O)c2nc(Cl)c(N)nc2N)n(CC2(CCc3ccccc3)CCN(C(=O)NC3CCN(C)CC3)CC2)c2ccccc21 [Example 10.01]	2 nM		
CCn1c(CNC(=O)c2nc(Cl)c(N)nc2N)[n+](CCNS(C)(=O)=O)c2ccc(OC)cc21 [Example 9.01]	0.4 nM		
CC[n+]1c(CNC(=O)c2nc(Cl)c(N)nc2N)n(CCOCCOCCNC(=O)OC(C)(C)C)c2cc(OC)ccc21 [Example 1.01]	3 nM		
CCn1c(CNC(=O)c2nc(Cl)c(N)nc2N)[n+](CC(=O)N2CCC(N(C)C)CC2)c2ccc(OC)cc21 [Example 3.11]	110 nM		
